Experimental data reported in patent US20170050957A1, “4-AMINO-6-(HETEROCYCLIC)PICOLINATES AND 6-AMINO-2-(HETEROCYCLIC)PYRIMIDINE-4-CARBOXYLATES AND THEIR USE AS HERBICIDES” (Dow AgroSciences LLC, priority 2013, published 2017).
Read-outs that look alike come from different tables or passages of the source.

Assays:
[1] = test system: Key Broadleaf Weed and Crop Species; experiment: Post-emergent Test II herbicidal activity (Table 15); assay type: in vivo; settings: post-emergence, 336 h, 14 d; for pest or weed control at 35 g/ha: 35 g ai/ha; for pest or weed control at 70 g/ha: 70 g ai/ha; for pest or weed control at 140 g/ha: 140 g ai/ha
Outline: (§1)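 Herbicidal effect scored as percent visual injury, 14 d after post-emergent application. Spray solutions contained acetone, DMSO, isopropyl alcohol, crop oil concentrate and surfactant, applied at 187 L/ha to young plants (1-2 true leaves).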

[2] = test system: Key Grass and Sedge Weeds as well as Grass Crops; experiment: Post-emergent Test II herbicidal activity (Table 16); assay type: in vivo; settings: post-emergence, 336 h; for pest or weed control at 35 g/ha: 35 g ai/ha; for pest or weed control at 70 g/ha: 70 g ai/ha; for pest or weed control at 140 g/ha: 140 g ai/ha
Outline: as §1

[3] = Abutilon theophrasti, velvetleaf (Abutilon theophrasti), read-out: Visual Growth Reduction (%) 14 Days After Application, ABUTH
[4] = Amaranthus retroflexus, redroot pigweed (Amaranthus retroflexus), read-out: Visual Growth Reduction (%) 14 Days After Application, AMARE
[5] = Brassica napus, oilseed rape, canola (Brassica napus), read-out: Visual Growth Reduction (%) 14 Days After Application, BRSNN
[6] = Chenopodium album, lambsquarters (Chenopodium album), read-out: Visual Growth Reduction (%) 14 Days After Application, CHEAL
[7] = Euphorbia heterophylla, wild poinsettia (Euphorbia heterophylla), read-out: Visual Growth Reduction (%) 14 Days After Application, EPHHL
[8] = Helianthus annuus, sunflower (Helianthus annuus), read-out: Visual Growth Reduction (%) 14 Days After Application, HELAN
[9] = Cyperus esculentus, yellow nutsedge (Cyperus esculentus), 14 d, read-out: Visual Growth Reduction (%) 14 Days After Application, CYPES
[10] = Echinochloa crus-galli, barnyardgrass (Echinochloa crus-galli), 14 d, read-out: Visual Growth Reduction (%) 14 Days After Application, ECHCG
[11] = Oryza sativa, rice (Oryza sativa), 14 d, read-out: Visual Growth Reduction (%) 14 Days After Application, ORYSA
[12] = Setaria faberi, giant foxtail (Setaria faberi), 14 d, read-out: Visual Growth Reduction (%) 14 Days After Application, SETFA
[13] = Triticum aestivum, wheat, spring (Triticum aestivum), 14 d, read-out: Visual Growth Reduction (%) 14 Days After Application, TRZAS
[14] = Zea mays, maize, corn (Zea mays), 14 d, read-out: Visual Growth Reduction (%) 14 Days After Application, ZEAMX
[15] = Cyperus esculentus, yellow nutsedge (Cyperus esculentus), 14 days after application, read-out: Visual Growth Reduction (%) 14 Days After Application CYPES
[16] = Echinochloa crus-galli, barnyardgrass (Echinochloa crus-galli), 14 days after application, read-out: Visual Growth Reduction (%) 14 Days After Application ECHCG
[17] = Oryza sativa, rice (Oryza sativa), 14 days after application, read-out: Visual Growth Reduction (%) 14 Days After Application ORYSA
[18] = Setaria faberi, giant foxtail (Setaria faberi), 14 days after application, read-out: Visual Growth Reduction (%) 14 Days After Application SETFA
[19] = Triticum aestivum, wheat, spring (Triticum aestivum), 14 days after application, read-out: Visual Growth Reduction (%) 14 Days After Application TRZAS
[20] = Zea mays, maize, corn (Zea mays), 14 days after application, read-out: Visual Growth Reduction (%) 14 Days After Application ZEAMX

| SMILES | pest or weed control at 35 g/ha [1, 3] [%] | pest or weed control at 70 g/ha [1, 3] [%] | pest or weed control at 140 g/ha [1, 3] [%] | pest or weed control at 35 g/ha [1, 4] [%] | pest or weed control at 70 g/ha [1, 4] [%] | pest or weed control at 140 g/ha [1, 4] [%] | pest or weed control at 35 g/ha [1, 5] [%] | pest or weed control at 70 g/ha [1, 5] [%] | pest or weed control at 140 g/ha [1, 5] [%] | pest or weed control at 35 g/ha [1, 6] [%] | pest or weed control at 70 g/ha [1, 6] [%] | pest or weed control at 140 g/ha [1, 6] [%] | pest or weed control at 35 g/ha [1, 7] [%] | pest or weed control at 70 g/ha [1, 7] [%] | pest or weed control at 140 g/ha [1, 7] [%] | pest or weed control at 35 g/ha [1, 8] [%] | pest or weed control at 70 g/ha [1, 8] [%] | pest or weed control at 140 g/ha [1, 8] [%] | also measured |
| --- | --- | --- | --- | --- | --- | --- | --- | --- | --- | --- | --- | --- | --- | --- | --- | --- | --- | --- | --- |
| COc1c(N)nc(-c2cc3[nH]ccc3cc2F)nc1C(=O)O [Compound 1.37] | 0 to 29 | 0 to 29 | 0 to 29 | 0 to 29 | 0 to 29 | 0 to 29 | 30 to 44 | 60 to 74 | 75 to 84 | 0 to 29 | 0 to 29 | 0 to 29 | 0 to 29 | 0 to 29 | 0 to 29 | 0 to 29 | 0 to 29 | 0 to 29 | pest or weed control at 35 g/ha [2, 9]: 0 to 29%; pest or weed control at 70 g/ha [2, 9]: 0 to 29%; pest or weed control at 140 g/ha [2, 9]: 0 to 29%; pest or weed control at 35 g/ha [2, 10]: 0 to 29%; pest or weed control at 70 g/ha [2, 10]: 0 to 29%; pest or weed control at 140 g/ha [2, 10]: 0 to 29%; pest or weed control at 35 g/ha [2, 11]: 0 to 29%; pest or weed control at 70 g/ha [2, 11]: 0 to 29%; pest or weed control at 140 g/ha [2, 11]: 0 to 29%; pest or weed control at 35 g/ha [2, 12]: 0 to 29%; pest or weed control at 70 g/ha [2, 12]: 0 to 29%; pest or weed control at 140 g/ha [2, 12]: 0 to 29%; pest or weed control at 35 g/ha [2, 13]: 0 to 29%; pest or weed control at 70 g/ha [2, 13]: 0 to 29%; pest or weed control at 140 g/ha [2, 13]: 0 to 29%; pest or weed control at 35 g/ha [2, 14]: 0 to 29%; pest or weed control at 70 g/ha [2, 14]: 0 to 29%; pest or weed control at 140 g/ha [2, 14]: 0 to 29% |
| COC(=O)c1nc(-c2ccc3ccsc3c2)cc(N)c1Cl [Compound 3.15] | 85 to 94 | 95 to 100 | 95 to 100 | 95 to 100 | 95 to 100 | 95 to 100 | 30 to 44 | 45 to 59 | 45 to 59 | 85 to 94 | 85 to 94 | 95 to 100 | 75 to 84 | 75 to 84 | 85 to 94 | 60 to 74 | 60 to 74 | 85 to 94 | pest or weed control at 35 g/ha [2, 15]: 0 to 29%; pest or weed control at 70 g/ha [2, 15]: 0 to 29%; pest or weed control at 140 g/ha [2, 15]: 0 to 29%; pest or weed control at 35 g/ha [2, 16]: 75 to 84%; pest or weed control at 70 g/ha [2, 16]: 75 to 84%; pest or weed control at 140 g/ha [2, 16]: 95 to 100%; pest or weed control at 35 g/ha [2, 17]: 0 to 29%; pest or weed control at 70 g/ha [2, 17]: 0 to 29%; pest or weed control at 140 g/ha [2, 17]: 0 to 29%; pest or weed control at 35 g/ha [2, 18]: 0 to 29%; pest or weed control at 70 g/ha [2, 18]: 0 to 29%; pest or weed control at 140 g/ha [2, 18]: 0 to 29%; pest or weed control at 35 g/ha [2, 19]: 0 to 29%; pest or weed control at 70 g/ha [2, 19]: 0 to 29%; pest or weed control at 140 g/ha [2, 19]: 0 to 29%; pest or weed control at 35 g/ha [2, 20]: 60 to 74%; pest or weed control at 70 g/ha [2, 20]: 60 to 74%; pest or weed control at 140 g/ha [2, 20]: 60 to 74% |
